Laboratory results published in PMC11257079 (Environmental science and pollution research international, 2024).
Converted amounts (≈) assume the structure as drawn. Where two headings read alike, the source gives them in different places.

Key:
[1] = ref PubChem, NIH; cited from earlier work
[2] = system: Lemna minor; assay: whole plant or invertebrate; assay type: in vivo; details: for EC50 / inhibition at 1.3 µM: Lemna minor, 168 h
[3] = system: Hydra vulgaris; assay: Hydra vulgaris assay; assay type: in vivo; details: 92 h, read-out: Morphology EC50
[4] = system: Caenorhabditis elegans; assay: whole plant or invertebrate; assay type: in vivo; details: for EC50: Caenorhabditis elegans, 48 h
[5] = at neutral pH and 20–25°C; ref PubChem, NIH; cited from earlier work
[6] = 168 hour (7 day), 95% confidence interval in brackets
[7] = read-out: Chlorophyll Content EC50
[8] = 48 hour, 95% confidence interval in brackets
[9] = 168 hour (7 day), 95% confidence interval in brackets, listed as pentachlorophenol

O=C(O)CNCP(=O)(O)O [Glyphosate]
LogP [1]: −4.6 | Chlorophyll Content EC10 [2, 6]: 0.054 (0–0.30) mM | Frond Number EC10 [2, 6]: 0.034 (0.022–0.046) mM | Surface Area EC10 [2, 6]: 0.053 (0.036–0.071) mM | EC50 [2, 7]: 94 µM | EC50 ([2]; read-out: Frond Number EC50): 57 µM | EC50 ([2]; read-out: Surface Area EC50): 60 µM | EC50 [3]: 160 µM | Body Length EC10 [4, 8]: 0.22 (0.13–0.31) mM | Nose Touch EC10 [4, 8]: 0.15 NA mM | Survival EC10 [4, 8]: 0.21 NA mM | EC50 ([4]; read-out: Body Length EC50): 250 µM | EC50 ([4]; read-out: Nose Touch EC50): 1000 µM | EC50 ([4]; read-out: Survival EC50): 360 µM | Solubility in water [5]: 1050 µg/mL (≈ 6.21 mM)

CON(C)C(=O)Nc1ccc(Cl)c(Cl)c1 [Linuron]
Chlorophyll Content EC10 [2, 6]: 0.00010 (0.000069–0.00013) mM | Frond Number EC10 [2, 6]: 0.00015 (0.00013–0.00016) mM | Surface Area EC10 [2, 6]: 0.00014 (0.00013–0.00016) mM | Chlorophyll Content EC10 ([2]; 168 hour (7 day), 95% confidence interval in brackets, listed as linuron): 0.00010 mM | EC50 [2, 7]: 0.15 µM | EC50 ([2]; read-out: Frond Number EC50): 0.18 µM | EC50 ([2]; read-out: Surface Area EC50): 0.18 µM | EC50 [3]: 63 µM | Body Length EC10 [4, 8]: 0.036 (0.0030–0.070) mM | Nose Touch EC10 [4, 8]: 0.056 (0.029–0.083) mM | Survival EC10 [4, 8]: 0.29 (0–1.3) mM | EC50 ([4]; read-out: Body Length EC50): 220 µM | EC50 ([4]; read-out: Nose Touch EC50): 150 µM | EC50 ([4]; read-out: Survival EC50): 650 µM

Cl[C@H]1[C@H](Cl)[C@@H](Cl)[C@@H](Cl)[C@H](Cl)[C@H]1Cl [Lindane]
LogP [1]: 3.8 | Chlorophyll Content EC10 [2, 6]: 0.0039 (0.0016–0.0061) mM | Frond Number EC10 [2, 6]: 0.0048 (0.0036–0.0060) mM | Surface Area EC10 [2, 6]: 0.0040 (0.0021–0.0059) mM | Chlorophyll Content EC10 ([2]; 168 hour (7 day), 95% confidence interval in brackets, listed as lindane): 0.0039 mM | EC50 [2, 7]: 6.1 µM | EC50 ([2]; read-out: Frond Number EC50): 7.3 µM | EC50 ([2]; read-out: Surface Area EC50): 11 µM | EC50 [3]: 22 µM | Body Length EC10 [4, 8]: 0.048 (0–0.21) mM | Nose Touch EC10 [4, 8]: 0.020 (0–0.051) mM | Survival EC10 [4, 8]: 0.055 (0–0.45) mM | EC50 ([4]; read-out: Body Length EC50): 540 µM | EC50 ([4]; read-out: Nose Touch EC50): 140 µM | EC50 ([4]; read-out: Survival EC50): 38 µM | Solubility in water [5]: 2 µg/mL (≈ 0.00688 mM)

C[n+]1ccc(-c2cc[n+](C)cc2)cc1 [Paraquat]
LogP [1]: 1.7 | Chlorophyll Content EC10 [2, 6]: 0.00014 (0.00012–0.00016) mM | Frond Number EC10 [2, 6]: 0.000090 (0.000080–0.000010) mM | Surface Area EC10 [2, 6]: 0.000098 (0.000060–0.000013) mM | EC50 [2, 7]: 0.16 µM | EC50 ([2]; read-out: Frond Number EC50): 0.12 µM | EC50 ([2]; read-out: Surface Area EC50): 0.11 µM | EC50 [3]: 44 µM | Body Length EC10 [4, 8]: 0.086 (0–0.63) mM | Nose Touch EC10 [4, 8]: 0.50 (0–1.3) mM | Survival EC10 [4, 8]: 0.044 (0–0.21) mM | EC50 ([4]; read-out: Body Length EC50): 1700 µM | EC50 ([4]; read-out: Nose Touch EC50): 860 µM | EC50 ([4]; read-out: Survival EC50): 50 µM | Solubility in water [5]: >620000 µg/mL

CCOP(=S)(OCC)Oc1cc(C)nc(C(C)C)n1 [Diazinon]
Chlorophyll Content EC10 [2, 6]: 0.016 (0–0.071) mM | Frond Number EC10 [2, 6]: 0.030 (0–0.140) mM | Surface Area EC10 [2, 6]: 0.031 (0–0.12) mM | Chlorophyll Content EC10 ([2]; 168 hour (7 day), 95% confidence interval in brackets, listed as diazinon): 0.0016 mM | EC50 [2, 7]: 260 µM | EC50 ([2]; read-out: Frond Number EC50): 330 µM | EC50 ([2]; read-out: Surface Area EC50): 570 µM | EC50 [3]: 55 µM | Body Length EC10 [4, 8]: 0.016 (0.0083–0.024) mM | Nose Touch EC10 [4, 8]: 0.080 (0.068–0.093) mM | Survival EC10 [4, 8]: 0.057 (0.052–0.061) mM | EC50 ([4]; read-out: Body Length EC50): 77 µM | EC50 ([4]; read-out: Nose Touch EC50): 120 µM | EC50 ([4]; read-out: Survival EC50): 71 µM

CNC(=O)O/N=C/C(C)(C)SC [Aldicarb]
LogP [1]: 1.1 | Chlorophyll Content EC10 [2, 6]: 0.096 (0.017–0.17) mM | Frond Number EC10 [2, 6]: 0.40 (0.28–0.52) mM | Surface Area EC10 [2, 6]: 1.0 (0–3.9) mM | EC50 [2, 7]: 110 µM | EC50 ([2]; read-out: Frond Number EC50): 1260 µM | EC50 ([2]; read-out: Surface Area EC50): 11000 µM | EC50 [3]: 4.6 µM | Body Length EC10 [4, 8]: 0.22 (0–0.62) mM | Nose Touch EC10 [4, 8]: 0.27 (0–1.6) mM | Survival EC10 [4, 8]: 0.47 (0.29–0.65) mM | EC50 ([4]; read-out: Body Length EC50): 250 µM | EC50 ([4]; read-out: Nose Touch EC50): 9600 µM | EC50 ([4]; read-out: Survival EC50): 650 µM

Oc1c(Cl)c(Cl)c(Cl)c(Cl)c1Cl [Pentachlorophenol]
Chlorophyll Content EC10 [2, 6]: 0.00073 (0.00027–0.0012) mM | Frond Number EC10 [2, 6]: 0.0053 (0.0037–0.0070) mM | Surface Area EC10 [2, 6]: 0.0086 (0–0.031) mM | Chlorophyll Content EC10 [2, 9]: 0.00073 mM | Frond Number EC10 [2, 9]: 0.0053 mM | Surface Area EC10 [2, 9]: 0.0086 mM | EC50 [2, 7]: 2.3 µM | EC50 ([2]; read-out: Frond Number EC50): 8.4 µM | EC50 ([2]; read-out: Surface Area EC50): 88 µM | EC50 [3]: 1.9 µM | Body Length EC10 [4, 8]: 0.21 (0–0.98) mM | Nose Touch EC10 [4, 8]: 0.17 NA mM | Survival EC10 [4, 8]: 0.11 (0.099–0.13) mM | Body Length EC10 ([4]; 48 hour, 95% confidence interval in brackets, listed as pentachlorophenol): 0.21 mM | EC50 ([4]; read-out: Body Length EC50): 180 µM | EC50 ([4]; read-out: Nose Touch EC50): 190 µM | EC50 ([4]; read-out: Survival EC50): 170 µM

Oc1c(Cl)cc(Cl)cc1Cl [2,4,6-trichlorophenol]
EC50 [2, 7]: 4 µM | EC50 ([2]; read-out: Frond Number EC50): 3.6 µM | inhibition at 1.3 µM ([2]; read-out: Inhibition of frond number): -3 ± 7% | inhibition at 1.3 µM ([2]; read-out: Inhibition of surface area): 5.8 ± 0.9% | EC50 ([2]; read-out: Surface Area EC50): 3.5 µM | Chlorophyll Content EC10 ([2]; in vivo): 0.0011 (0.0003–0.0018) mM | Decrease in chlorophyll content ([2]; in vivo): 15 ± 3% | Frond Number EC10 ([2]; in vivo): 0.0019 (0.0015–0.0023) mM | Surface Area EC10 ([2]; in vivo): 0.0016 (0.0011–0.0021) mM | EC50 ([4]; read-out: Body Length EC50): 180 µM | EC50 ([4]; read-out: Nose Touch EC50): 250 µM | EC50 ([4]; read-out: Survival EC50): 230 µM | Body Length EC10 ([4]; in vivo): 0.12 (0.094–0.14) mM | Decrease in nematode survival ([4]; in vivo): 2.6 ± 4% | Impairment to behavior (nose touch response) ([4]; in vivo): 16 ± 3% | Impairment to body length ([4]; in vivo): 5.9 ± 4% | Nose Touch EC10 ([4]; in vivo): 0.12 (0.11–0.15) mM | Survival EC10 ([4]; in vivo): 0.19 (0.15–0.23) mM

CCCN(CCC)c1c([N+](=O)[O-])cc(C(F)(F)F)cc1[N+](=O)[O-] [Trifluralin]
Chlorophyll Content EC10 [2, 6]: 0.000042 (0–0.00015) mM | Frond Number EC10 [2, 6]: 0.00037 (0–0.00075) mM | Surface Area EC10 [2, 6]: 0.00062 (0–0.0014) mM | Chlorophyll Content EC10 ([2]; 168 hour (7 day), 95% confidence interval in brackets, listed as trifluralin): 0.000042 mM | EC50 [2, 7]: 4.6 µM | EC50 ([2]; read-out: Frond Number EC50): 1.8 µM | EC50 ([2]; read-out: Surface Area EC50): 1.4 µM | EC50 [3]: 10 µM | Body Length EC10 [4, 8]: 0.19 (0–1.2) mM | Nose Touch EC10 [4, 8]: 0.19 (0–0.59) mM | Survival EC10 [4, 8]: 0.13 (0.13–0.14) mM | Nose Touch EC10 ([4]; 48 hour, 95% confidence interval in brackets, listed as trifluralin): 0.19 mM | EC50 ([4]; read-out: Body Length EC50): 180 µM | EC50 ([4]; read-out: Nose Touch EC50): 220 µM | EC50 ([4]; read-out: Survival EC50): 140 µM
